Experiments:
PAC2 WT = target: T1, PAC2 WT (Mus musculus, UniProt Q9ES52); test: Biolayer interferometry, wild-type PAC2; assay type: binding; conditions: 20 μM analyte; compared to compound I-2 or PI(3,4)P2
T1 construct: PAC1 and PAC2 consists of phosphatase and C2 domain (residues aa 402-861 and aa 402-857 respectively); made in house; host or cells: E. coli BL21 co-transformed with pBirAcm
T1 sequence (Q9ES52 402-857): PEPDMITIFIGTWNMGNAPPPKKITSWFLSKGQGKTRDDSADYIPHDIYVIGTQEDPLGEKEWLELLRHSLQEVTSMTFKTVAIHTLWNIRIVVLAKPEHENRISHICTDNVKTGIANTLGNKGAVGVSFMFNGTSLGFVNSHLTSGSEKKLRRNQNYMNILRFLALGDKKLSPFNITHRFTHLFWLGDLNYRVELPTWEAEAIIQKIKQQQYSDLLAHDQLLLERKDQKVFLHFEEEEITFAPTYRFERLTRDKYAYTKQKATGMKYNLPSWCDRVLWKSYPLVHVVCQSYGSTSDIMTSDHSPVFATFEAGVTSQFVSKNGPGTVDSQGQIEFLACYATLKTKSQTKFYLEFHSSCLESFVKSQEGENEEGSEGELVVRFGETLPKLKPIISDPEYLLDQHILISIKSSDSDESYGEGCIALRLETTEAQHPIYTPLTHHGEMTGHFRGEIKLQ
Method: Expression of PAC2-Avi tag for Biolayer interferometry. A sequence corresponding to Avi-tag ([…]) was added to the c-terminal end of the PAC2 in LIC-HMT-PAC2 expressing vector via standard restriction digestion and ligation. The LIC-HMT-PAC2-Avi expressing vector was then co-transformed into E. coli BL21 cells with pBirAcm expression vector in 1:1 molar ratio. Overnight culture was inoculated with a 250-fold dilution to start the actual culture. The cells were grown at 37° C. in LB medium (supplemented with 50 μg/mL of kanamycin and 10 μg/mL of chloramphenicol) with shaking speed of 225 rpm. When OD600 reached about 0.6, 5 mM of biotin in bicine buffer pH 8.3 was added to the culture to have final concentration of 125 μM of biotin. The culture was then cooled down to room temperature before the addition of 0.4 mM isopropyl-B-D-1-thiogalactopyranoside (IPTG) to induce the expression of the recombinant protein with Avi-tag. The rest of the method is identical as written in “Expression of PAC2 for crystallography”.
Biolayer interferometry. […] The association was measured for 600 s at an analyte concentration of 20 μM followed by dissociation for 300 s in the same buffer as the baseline. The raw data was analyzed using the Octet Red Data Analysis software (ver. 8.2). […]

SHIP1 [1] = target: T2, SHIP1 (Homo sapiens, UniProt Q92835); conditions: Stenton et al., 2013b; cited from earlier work
T2 sequence (Q92835 1-1189): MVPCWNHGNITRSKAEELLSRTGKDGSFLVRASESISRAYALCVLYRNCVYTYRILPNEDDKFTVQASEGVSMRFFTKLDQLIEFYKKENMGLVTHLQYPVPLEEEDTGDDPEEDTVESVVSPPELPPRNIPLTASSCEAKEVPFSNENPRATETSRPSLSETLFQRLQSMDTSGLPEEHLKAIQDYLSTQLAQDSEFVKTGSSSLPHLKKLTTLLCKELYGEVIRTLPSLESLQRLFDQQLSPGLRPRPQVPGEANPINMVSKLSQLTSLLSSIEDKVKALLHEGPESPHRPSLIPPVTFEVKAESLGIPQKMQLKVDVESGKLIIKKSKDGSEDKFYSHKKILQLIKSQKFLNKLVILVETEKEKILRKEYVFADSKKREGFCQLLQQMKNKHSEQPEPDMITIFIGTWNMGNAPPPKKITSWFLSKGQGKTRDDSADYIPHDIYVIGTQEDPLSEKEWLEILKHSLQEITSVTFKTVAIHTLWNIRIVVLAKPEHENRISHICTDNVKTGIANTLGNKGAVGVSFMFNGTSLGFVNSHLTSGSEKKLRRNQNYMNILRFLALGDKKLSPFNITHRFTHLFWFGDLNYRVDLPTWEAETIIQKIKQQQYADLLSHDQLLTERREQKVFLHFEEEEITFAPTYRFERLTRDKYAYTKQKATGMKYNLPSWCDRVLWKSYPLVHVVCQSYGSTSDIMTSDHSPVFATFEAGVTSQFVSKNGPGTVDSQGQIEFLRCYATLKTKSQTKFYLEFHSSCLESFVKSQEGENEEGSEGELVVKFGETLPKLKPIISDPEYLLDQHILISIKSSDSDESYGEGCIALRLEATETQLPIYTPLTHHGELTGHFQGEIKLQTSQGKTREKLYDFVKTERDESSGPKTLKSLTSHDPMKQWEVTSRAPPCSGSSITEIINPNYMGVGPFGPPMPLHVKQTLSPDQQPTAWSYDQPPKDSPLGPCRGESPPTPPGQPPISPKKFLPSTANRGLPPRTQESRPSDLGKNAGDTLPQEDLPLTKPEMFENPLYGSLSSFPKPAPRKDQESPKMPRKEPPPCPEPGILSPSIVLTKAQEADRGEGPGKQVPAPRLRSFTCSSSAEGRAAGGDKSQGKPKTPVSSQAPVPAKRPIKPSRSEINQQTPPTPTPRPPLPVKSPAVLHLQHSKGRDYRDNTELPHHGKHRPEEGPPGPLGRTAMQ

SHIP1 [2] = target: T2, SHIP1; conditions: scintillation proximity assay, Stenton et al; cited from earlier work

## C=C1CC[C@H]2[C@H](CN)[C@@H]([C@@]3(C)CC[C@H](O)C[C@@H]3CO)CC[C@]12C [AQX-1125/Rosiptor]
PAC2 WT
  binding to SHIP1 (PAC2 WT) in BLI assay: binds very poorly
SHIP1 [1]
  SHIP1 phosphatase enhancing activity: marginal
SHIP1 [2]
  signal of tritiated compound binding to SHIP1 protein: ~300 cpm
